Assays:
[1] = molecular target: T1, human OAT4 (Homo sapiens, UniProt Q9NSA0); assay: Cellular transport assay, HEK-293 cells expressing human OAT4; details: positive substrate 20 μM, 10 min; human OAT4
T1 sequence (Q9NSA0 1-550): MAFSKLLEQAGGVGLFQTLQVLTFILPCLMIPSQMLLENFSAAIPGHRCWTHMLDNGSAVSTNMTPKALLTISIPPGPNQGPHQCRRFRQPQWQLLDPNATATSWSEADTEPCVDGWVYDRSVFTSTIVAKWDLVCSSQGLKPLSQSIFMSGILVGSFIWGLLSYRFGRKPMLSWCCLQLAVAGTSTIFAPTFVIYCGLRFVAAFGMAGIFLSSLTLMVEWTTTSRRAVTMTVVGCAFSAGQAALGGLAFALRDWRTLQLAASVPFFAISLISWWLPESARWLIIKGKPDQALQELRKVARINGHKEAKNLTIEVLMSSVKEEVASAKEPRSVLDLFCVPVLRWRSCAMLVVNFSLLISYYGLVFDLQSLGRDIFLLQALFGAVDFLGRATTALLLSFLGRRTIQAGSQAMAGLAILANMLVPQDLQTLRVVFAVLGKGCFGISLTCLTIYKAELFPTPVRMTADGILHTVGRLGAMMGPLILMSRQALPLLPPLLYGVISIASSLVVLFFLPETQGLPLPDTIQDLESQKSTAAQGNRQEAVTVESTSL
Description: (§1) Briefly, HEK-293 cells were grown, at 37°C and 5% CO2, in Dulbecco’s modified Eagle’s medium, which was fortified with 10% fetal bovine serum, 1% minimal essential medium nonessential amino acids, and 1% antibiotic-antimycotic solution. A day before transfection, cells were seeded onto 24-well poly-D-lysine-coated plates at a density of 2 × 10^5 cells per well. After incubation at 37°C and 5% CO2 for 24 h, the expression plasmid and the empty vector were introduced separately into the HEK293 cells with Lipofectamine 2000 transfection reagent (Invitrogen, Carlsbad, CA, United States), according to the manufacturer’s protocol to yield transporter-expressing cells and mock cells, respectively.
(§2) Transport studies were performed 48 h after the transfection. […] Differential uptake between the transfected cells and mock cells was defined as net transport ratio (TransportTC/TransportMC ratio), where TransportTC and TransportMC are the transport rates of a test Danshen compound into transfected and mock cells, respectively. […] The determination was performed under linear uptake conditions by incubation for 5 min. Table 1 summarizes the final concentrations of the test Danshen compounds for different transporters. All the incubation samples were analyzed by liquid chromatography/mass spectrometry.
(§3) GraFit software (version 5.0; Erithacus Software Ltd, Surrey, United Kingdom) was used to determine the K m and V max values by nonlinear regression analysis of initial transport rates as a function of substrate concentration.

[2] = molecular target: T2, rat Oat3 (Rattus norvegicus, UniProt Q9R1U7); assay: Cellular transport assay, HEK-293 cells expressing rat Oat3; details: positive substrate 20 μM, 10 min; rat Oat3
T2 sequence (Q9R1U7 1-536): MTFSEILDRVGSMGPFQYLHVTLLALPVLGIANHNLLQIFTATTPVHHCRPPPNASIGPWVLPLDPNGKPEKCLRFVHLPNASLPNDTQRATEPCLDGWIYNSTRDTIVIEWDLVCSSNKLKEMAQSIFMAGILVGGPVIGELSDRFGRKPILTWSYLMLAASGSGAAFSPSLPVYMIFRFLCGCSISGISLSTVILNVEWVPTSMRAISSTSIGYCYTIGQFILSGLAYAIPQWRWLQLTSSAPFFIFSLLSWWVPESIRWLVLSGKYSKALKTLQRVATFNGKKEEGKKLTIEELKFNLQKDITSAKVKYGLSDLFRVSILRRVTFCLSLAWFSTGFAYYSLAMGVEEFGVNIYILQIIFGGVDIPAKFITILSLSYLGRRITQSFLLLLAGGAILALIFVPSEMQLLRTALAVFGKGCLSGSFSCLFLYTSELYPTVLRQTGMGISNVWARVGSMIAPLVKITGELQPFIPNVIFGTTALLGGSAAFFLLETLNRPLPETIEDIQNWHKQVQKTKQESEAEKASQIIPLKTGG
Description: as §1, §2, §3

[3] = molecular target: T3, human OAT3 (Homo sapiens, UniProt Q8TCC7); assay: Cellular transport assay, HEK-293 cells expressing human OAT3; details: positive substrate 20 μM, 10 min; human OAT3
T3 sequence (Q8TCC7 1-542): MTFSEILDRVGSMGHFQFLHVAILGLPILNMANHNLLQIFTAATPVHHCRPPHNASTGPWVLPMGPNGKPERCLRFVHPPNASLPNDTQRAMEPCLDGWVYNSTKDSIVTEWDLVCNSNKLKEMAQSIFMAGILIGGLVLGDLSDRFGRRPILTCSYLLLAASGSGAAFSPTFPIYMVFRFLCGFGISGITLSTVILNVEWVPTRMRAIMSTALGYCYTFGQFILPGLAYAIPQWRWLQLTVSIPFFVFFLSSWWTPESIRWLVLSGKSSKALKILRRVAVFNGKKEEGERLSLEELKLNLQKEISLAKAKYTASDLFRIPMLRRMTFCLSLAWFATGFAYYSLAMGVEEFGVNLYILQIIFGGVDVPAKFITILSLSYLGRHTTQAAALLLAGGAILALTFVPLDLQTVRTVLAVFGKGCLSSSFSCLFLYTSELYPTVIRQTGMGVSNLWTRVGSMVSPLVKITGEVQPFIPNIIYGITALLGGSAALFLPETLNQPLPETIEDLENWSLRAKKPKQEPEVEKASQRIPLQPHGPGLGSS
Description: as §1, §2, §3

[4] = molecular target: T4, human OATP2B1 (Homo sapiens, UniProt O94956); assay: Cellular transport assay, HEK-293 cells expressing human OATP2B1; details: positive substrate 20 μM, 10 min; human OATP2B1
T4 sequence (O94956 1-709): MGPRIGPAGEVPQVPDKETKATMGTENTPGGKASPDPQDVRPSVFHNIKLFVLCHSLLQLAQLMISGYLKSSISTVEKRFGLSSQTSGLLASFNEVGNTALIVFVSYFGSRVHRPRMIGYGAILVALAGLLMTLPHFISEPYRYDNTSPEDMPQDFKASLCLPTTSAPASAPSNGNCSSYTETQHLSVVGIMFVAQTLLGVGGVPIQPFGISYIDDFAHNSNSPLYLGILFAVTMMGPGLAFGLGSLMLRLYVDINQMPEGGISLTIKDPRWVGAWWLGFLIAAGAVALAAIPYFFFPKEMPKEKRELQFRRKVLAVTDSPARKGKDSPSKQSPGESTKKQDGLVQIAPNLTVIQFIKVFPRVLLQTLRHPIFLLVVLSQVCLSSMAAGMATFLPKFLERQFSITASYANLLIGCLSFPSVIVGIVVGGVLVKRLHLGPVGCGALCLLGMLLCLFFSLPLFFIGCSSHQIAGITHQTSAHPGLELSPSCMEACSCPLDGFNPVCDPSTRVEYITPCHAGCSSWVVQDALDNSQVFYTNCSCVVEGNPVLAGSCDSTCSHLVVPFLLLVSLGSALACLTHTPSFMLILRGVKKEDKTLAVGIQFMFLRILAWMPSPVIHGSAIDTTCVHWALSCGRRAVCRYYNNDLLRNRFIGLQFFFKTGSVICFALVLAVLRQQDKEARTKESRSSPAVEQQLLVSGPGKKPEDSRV

C[C@]12CC[C@@H]3c4ccc(OS(=O)(=O)O)cc4CC[C@H]3[C@@H]1CCC2=O [E1S, estrone-3-sulfate, reference compound]
TransportTC/TransportMC ratio, positive substrate [1]: 7.69 ± 1.74 (E1S)
TransportTC/TransportMC ratio, positive substrate [2]: 21.4 ± 6.8 (E1S)
TransportTC/TransportMC ratio, positive substrate [3]: 10.2 ± 1.2 (E1S)
TransportTC/TransportMC ratio, positive substrate [4]: 41.1 ± 1.5 (E1S)
